Tests used:
[1] = tested on: Leptosphaeria nodorum; assay: Leptosphaeria nodorum test (wheat)/curative; format: in vivo; conditions: curative, application rate 125 g/ha, evaluation 10 days after inoculation
Method: Leptosphaeria nodorum test (wheat)/curative Solvent: 10 parts by weight of N-methyl-pyrrolidone Emulsifier: 0.6 parts by weight of alkylaryl polyglycol ether To produce a suitable preparation of active compound, 1 part by weight of active compound is mixed with the stated amounts of solvent and emulsifier, and the concentrate is diluted with water to the desired concentration. To test for curative activity, young plants are sprayed with a conidia suspension of Leptosphaeria nodorum. […] The plants are placed in a greenhouse at a temperature of approximately 15° C. and a relative atmospheric humidity of approximately 80%.

[2] = logP by HPLC (EEC directive 79/831 Annex V. A8, gradient method); format: physicochemical
Method: The logP values were determined in accordance with EEC directive 79/831 Annex V. A8 by HPLC (gradient method, acetonitrile/0.1% aqueous phosphoric acid)

[3] = tested on: Pyrenophora teres; assay: Pyrenophora teres test (barley)/curative; format: in vivo; conditions: curative, application rate 250 g/ha, evaluation 7 days after inoculation
Method: Pyrenophora teres test (barley)/curative Solvent: 10 parts by weight of N-methyl-pyrrolidone Emulsifier: 0.6 parts by weight of alkylaryl polyglycol ether To produce a suitable preparation of active compound, 1 part by weight of active compound is mixed with the stated amounts of solvent and emulsifier, and the concentrate is diluted with water to the desired concentration. To test for curative activity, young plants are sprayed with a conidia suspension of Pyrenophora teres. The plants remain in an incubation cabin at 20° C. and 100% relative atmospheric humidity for 48 hours. The plants are subsequently sprayed with the preparation of active compound at the stated application rate. The plants are placed in a greenhouse at a temperature of approximately 20° C. and a relative atmospheric humidity of approximately 80%.

CNC(=O)C(=NOC)c1ccccc1Oc1nccc(OC(C)C)n1 [Example 1, 2-[2-(4-isopropoxypyrimidin-2-yloxy)-phenyl]-2-methoxyimino-N-methylacetamide]
efficacy [1]: more than 60%
chromatographic logP [2]: 2.2
efficacy [3]: 70%

Reference: patent publication US6348471B1, “Pyrimidyl oxyphenylacetic acid derivatives” (Bayer Aktiengesellschaft, priority 1997, dated 2002)
